Experimental findings from ChEMBL document CHEMBL3596110, “Design of glycosyltransferase inhibitors targeting human O-GlcNAc transferase (OGT)” (Medchemcomm, 2014) are described below.

The structures appear in SMILES notation. pIC50, pKi: −log10 of the molar value. Activity calls are given as the source filed them. The calls are words filed in the database; no cut-off is given here.

One data set addresses T1, UDP-N-acetylglucosamine--peptide N-acetylglucosaminyltransferase 110 kDa subunit (Homo sapiens, UniProt O15294).
T1 sequence (O15294 whole entry): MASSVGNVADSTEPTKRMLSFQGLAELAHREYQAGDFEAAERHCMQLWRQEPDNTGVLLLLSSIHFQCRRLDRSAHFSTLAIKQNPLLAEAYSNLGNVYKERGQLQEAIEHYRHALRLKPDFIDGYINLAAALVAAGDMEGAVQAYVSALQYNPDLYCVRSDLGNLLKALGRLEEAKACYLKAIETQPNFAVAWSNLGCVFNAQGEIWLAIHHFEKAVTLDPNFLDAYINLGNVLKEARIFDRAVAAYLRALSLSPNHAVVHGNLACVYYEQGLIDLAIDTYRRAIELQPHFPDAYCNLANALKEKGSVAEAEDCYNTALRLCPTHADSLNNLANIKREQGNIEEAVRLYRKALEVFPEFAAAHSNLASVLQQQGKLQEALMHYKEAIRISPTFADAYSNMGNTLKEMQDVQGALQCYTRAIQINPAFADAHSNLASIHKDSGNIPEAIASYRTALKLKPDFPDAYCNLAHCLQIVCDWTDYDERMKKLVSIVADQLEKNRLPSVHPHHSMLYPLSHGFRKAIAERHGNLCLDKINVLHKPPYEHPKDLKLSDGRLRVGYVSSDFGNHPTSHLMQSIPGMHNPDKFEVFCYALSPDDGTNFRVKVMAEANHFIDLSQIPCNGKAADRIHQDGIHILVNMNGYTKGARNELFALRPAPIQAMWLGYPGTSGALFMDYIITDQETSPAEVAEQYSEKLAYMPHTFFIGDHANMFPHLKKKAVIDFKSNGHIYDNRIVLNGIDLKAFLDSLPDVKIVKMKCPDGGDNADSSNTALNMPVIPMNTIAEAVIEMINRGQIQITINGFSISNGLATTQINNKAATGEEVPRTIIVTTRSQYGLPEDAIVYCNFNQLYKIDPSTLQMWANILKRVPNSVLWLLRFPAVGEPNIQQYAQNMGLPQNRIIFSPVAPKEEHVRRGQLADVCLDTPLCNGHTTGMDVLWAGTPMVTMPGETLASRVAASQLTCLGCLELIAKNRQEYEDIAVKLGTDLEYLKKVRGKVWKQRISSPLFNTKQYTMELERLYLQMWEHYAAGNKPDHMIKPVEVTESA
The experiment in a line: Inhibition of human OGT using [3H]-UDP-GlcNAc as donor and recombinant nup2 as acceptor by Dixon plot analysis.
Settings: not given
On to `CC(=O)N[C@@H]1[C@@H](O)[C@H](O)[C@@H](CO)S[C@@H]1OP(=O)(O)OP(=O)(O)OC[C@H]1O[C@@H](n2ccc(=O)[nH]c2=O)[C@H](O)[C@@H]1O`, for which the pKi is 5.10.

Consider `O=C(N[C@@H]1O[C@H](CO)[C@@H](O)[C@H](O)[C@H]1O)c1cccc(Cc2cn(C[C@H]3O[C@@H](n4ccc(=O)[nH]c4=O)[C@H](O)[C@@H]3O)nn2)n1`, for which the pKi is 3.38.

On to `CC(=O)N[C@@H]1[C@@H](O)[C@H](O)[C@@H](CO)O[C@@H]1SP(=O)(O)OP(=O)(O)OC[C@H]1O[C@@H](n2ccc(=O)[nH]c2=O)[C@H](O)[C@@H]1O`, for which the pKi was 4.03.

The target in a further data set is T2, UDP-N-acetylglucosamine--peptide N-acetylglucosaminyltransferase 110 kDa subunit (Homo sapiens) (UniProt O15294).
T2 sequence (whole entry): T1 sequence (O15294 whole entry)
Briefly: Inhibition of OGT in human MCF7 cells assessed as decrease in intracellular O-GlcNAcylated protein level up to 500 uM after 24 to 48 hrs by immunoblot analysis. The format is cell-based.
Settings: not given
In general terms: A western blot detects proteins with antibodies after separation by electrophoresis.
As to `CC(=O)N[C@@H]1[C@@H](O)[C@H](O)[C@@H](CO)O[C@H]1NC(=O)c1cccc(Cc2cn(C[C@H]3O[C@@H](n4ccc(=O)[nH]c4=O)[C@H](O)[C@@H]3O)nn2)n1`, the inhibition result is “inactive”.

On to `O=c1ccn([C@@H]2O[C@H](Cn3cc(-c4cccc(-c5cn([C@@H]6O[C@H](CO)[C@@H](O)[C@H](O)[C@H]6O)nn5)n4)nn3)[C@@H](O)[C@H]2O)c(=O)[nH]1`, for which the inhibition result was “inactive”.

As to `CC(=O)N[C@@H]1[C@@H](O)[C@H](O)[C@@H](CO)O[C@H]1n1cc(-c2cccc(-c3cn(C[C@H]4O[C@@H](n5ccc(=O)[nH]c5=O)[C@H](O)[C@@H]4O)nn3)n2)nn1`, the inhibition result is “inactive”.

For the compound `CC(=O)N[C@@H]1[C@@H](O)[C@H](O)[C@@H](CO)O[C@H]1n1cc(-c2cccc(C(=O)NC[C@H]3O[C@@H](n4ccc(=O)[nH]c4=O)[C@H](O)[C@@H]3O)n2)nn1`, the inhibition entry was “inactive”.

For the compound `O=C(N[C@@H]1O[C@H](CO)[C@@H](O)[C@H](O)[C@H]1O)c1cccc(Cc2cn(C[C@H]3O[C@@H](n4ccc(=O)[nH]c4=O)[C@H](O)[C@@H]3O)nn2)n1`, the inhibition result was “inactive”.

Consider `O=C(NC[C@H]1O[C@@H](n2ccc(=O)[nH]c2=O)[C@H](O)[C@@H]1O)c1cccc(-c2cn([C@@H]3O[C@H](CO)[C@@H](O)[C@H](O)[C@H]3O)nn2)n1`, for which the inhibition result is “inactive”.

On to `O=C(NC[C@H]1O[C@@H](n2ccc(=O)[nH]c2=O)[C@H](O)[C@@H]1O)c1cccc(Br)n1`, for which the inhibition entry was “inactive”.

System in a further data set: not listed separately
The experiment in a line: Permeability across POPC liposomes by out-in method. The data set is classed as ADME.
Settings: not given
As for `O=C(N[C@@H]1O[C@H](CO)[C@@H](O)[C@H](O)[C@H]1O)c1cccc(Cc2cn(C[C@H]3O[C@@H](n4ccc(=O)[nH]c4=O)[C@H](O)[C@@H]3O)nn2)n1`, the permeability entry was “impermeable”.

As to `O=C(NC[C@H]1O[C@@H](n2ccc(=O)[nH]c2=O)[C@H](O)[C@@H]1O)c1cccc(CO[C@@H]2O[C@H](CO)[C@@H](O)[C@H](O)[C@H]2O)n1`, the permeability result is reported as “impermeable”.

Another data set addresses T2, UDP-N-acetylglucosamine--peptide N-acetylglucosaminyltransferase 110 kDa subunit (Homo sapiens). Briefly: Inhibition of human OGT using [3H]-UDP-GlcNAc as donor and recombinant nup2 as acceptor at 50 uM by liquid scintillation counting analysis.
Settings: not given
Regarding `CC(=O)N[C@@H]1[C@@H](O)[C@H](O)[C@@H](CO)O[C@H]1NC(=O)c1cccc(Cc2cn(C[C@H]3O[C@@H](n4ccc(=O)[nH]c4=O)[C@H](O)[C@@H]3O)nn2)n1`, the inhibition was found to be 3%.

In the case of `O=c1ccn([C@@H]2O[C@H](Cn3cc(-c4cccc(-c5cn([C@@H]6O[C@H](CO)[C@@H](O)[C@H](O)[C@H]6O)nn5)n4)nn3)[C@@H](O)[C@H]2O)c(=O)[nH]1`, the inhibition was 13.3%.

`CC(=O)N[C@@H]1[C@@H](O)[C@H](O)[C@@H](CO)O[C@H]1n1cc(-c2cccc(-c3cn(C[C@H]4O[C@@H](n5ccc(=O)[nH]c5=O)[C@H](O)[C@@H]4O)nn3)n2)nn1`: the inhibition stood at 6.7%.

For the compound `CC(=O)N[C@@H]1[C@@H](O)[C@H](O)[C@@H](CO)O[C@H]1n1cc(-c2cccc(C(=O)NC[C@H]3O[C@@H](n4ccc(=O)[nH]c4=O)[C@H](O)[C@@H]3O)n2)nn1`, the inhibition stood at 9.7%.

Consider `O=C(N[C@@H]1O[C@H](CO)[C@@H](O)[C@H](O)[C@H]1O)c1cccc(Cc2cn(C[C@H]3O[C@@H](n4ccc(=O)[nH]c4=O)[C@H](O)[C@@H]3O)nn2)n1`, for which the inhibition is 18%.

In the case of `O=c1ccn([C@@H]2O[C@H](Cn3cc(-c4cccc(Br)n4)nn3)[C@@H](O)[C@H]2O)c(=O)[nH]1`, the inhibition turned out to be 15.5%.

For the compound `O=C(NC[C@H]1O[C@@H](n2ccc(=O)[nH]c2=O)[C@H](O)[C@@H]1O)c1cccc(-c2cn([C@@H]3O[C@H](CO)[C@@H](O)[C@H](O)[C@H]3O)nn2)n1`, the inhibition worked out at 4.2%.

Consider `O=C(NC[C@H]1O[C@@H](n2ccc(=O)[nH]c2=O)[C@H](O)[C@@H]1O)c1cccc(Br)n1`, for which the inhibition was 7.6%.

System in another data set: not listed separately
Briefly: Permeability across POPC liposomes by in-out method. The format is ADME.
Settings: not given
As for `O=C(N[C@@H]1O[C@H](CO)[C@@H](O)[C@H](O)[C@H]1O)c1cccc(Cc2cn(C[C@H]3O[C@@H](n4ccc(=O)[nH]c4=O)[C@H](O)[C@@H]3O)nn2)n1`, the permeability entry is “impermeable”.

In the case of `O=C(NC[C@H]1O[C@@H](n2ccc(=O)[nH]c2=O)[C@H](O)[C@@H]1O)c1cccc(CO[C@@H]2O[C@H](CO)[C@@H](O)[C@H](O)[C@H]2O)n1`, the permeability entry was “impermeable”.

The target in another data set is T1, UDP-N-acetylglucosamine--peptide N-acetylglucosaminyltransferase 110 kDa subunit. The experiment in a line: Inhibition of human OGT using [3H]-UDP-GlcNAc as donor and recombinant nup2 as acceptor by liquid scintillation counting analysis.
Settings: not given
Regarding `O=c1ccn([C@@H]2O[C@H](Cn3cc(-c4cccc(-c5cn([C@@H]6O[C@H](CO)[C@@H](O)[C@H](O)[C@H]6O)nn5)n4)nn3)[C@@H](O)[C@H]2O)c(=O)[nH]1`, the pIC50 is 2.80.

With `O=C(N[C@@H]1O[C@H](CO)[C@@H](O)[C@H](O)[C@H]1O)c1cccc(Cc2cn(C[C@H]3O[C@@H](n4ccc(=O)[nH]c4=O)[C@H](O)[C@@H]3O)nn2)n1`, the pIC50 is 3.47.

Consider `O=C(Oc1ccccc1)n1c(=O)oc2ccc(Cl)cc21`, for which the pIC50 was 5.00.

Consider `O=c1ccn([C@@H]2O[C@H](Cn3cc(-c4cccc(Br)n4)nn3)[C@@H](O)[C@H]2O)c(=O)[nH]1`, for which the pIC50 was 3.15.

The target of another data set is T2, UDP-N-acetylglucosamine--peptide N-acetylglucosaminyltransferase 110 kDa subunit (Homo sapiens). The experiment in a line: Inhibition of OGT in human MCF10A cells assessed as decrease in intracellular O-GlcNAcylated protein level up to 500 uM after 24 to 48 hrs by immunoblot analysis. The format is cell-based. The settings on record: MCF-10A.
With `O=C(N[C@@H]1O[C@H](CO)[C@@H](O)[C@H](O)[C@H]1O)c1cccc(Cc2cn(C[C@H]3O[C@@H](n4ccc(=O)[nH]c4=O)[C@H](O)[C@@H]3O)nn2)n1`, the inhibition result is “inactive”.

For the next data set the target is unchanged. The experiment in a line: Inhibition of OGT in human HeLa cells assessed as decrease in intracellular O-GlcNAcylated protein level up to 500 uM after 24 to 48 hrs by immunoblot analysis. The data set is classed as cell-based.
Settings: not given
`O=C(N[C@@H]1O[C@H](CO)[C@@H](O)[C@H](O)[C@H]1O)c1cccc(Cc2cn(C[C@H]3O[C@@H](n4ccc(=O)[nH]c4=O)[C@H](O)[C@@H]3O)nn2)n1`: the inhibition entry is “inactive”.

A word on the pKi: it is the negative decadic logarithm of the Ki, by convention in mol/L. One may read the inhibition as the drop in the measured response relative to a control, in per cent. In general, pIC50 refers to −log10 of the IC50, conventionally taken in molar units.
